Assays:
Assay type in all cases: in vivo, human
[1] = tested on: apomorphine-induced vomiting and retching; assay: Emesis test (apomorphine challenge), Single Ascending Dose study (SAD)
Experimental: (§1) The described emesis test was performed in two studies. A Single Ascending Dose study (SAD) and a Multiple Ascending Dose study (MAD). In the SAD the emesis test was performed 6 and/or 24 hrs after intake of 2-(3,5-bis-trifluoromethyl-phenyl)-N-methyl-N-(6-morpholin-4-yl-4-o-tolyl-pyridin-3-yl)-isobutyramide. In the MAD the emesis test was performed after 14 once daily doses, 6 or 24 hrs after the last dose.
In the SAD on study day 1 doses of 5, 10, 20, 40, 80, 160, 230 and 400 mg 2-(3,5-bis-trifluoromethyl-phenyl)-N-methyl-N-(6-morpholin-4-yl-4-o-tolyl-pyridin-3-yl)-isobutyramide were administered to the subjects orally as a drinking emulsion. At either 6 or 24 hours after the administration of the drug the subjects received a subcutaneous injection of 50 μg/kg of apomorphine in the lower part of the abdomen. The time of apomorphine administration was recorded. The subjects were brought into an upright sitting position immediately after the injection. They remained in this position until vomiting occurred or for at least 1 hour after the apomorphine injection. Vomiting is defined as regurgitation of approximately 25 ml or more of gastric contents. A retch is defined as a regurgitation producing less or no gastric content.
Nausea and/or vomiting was expected to occur on average within 10 minutes after the injection. […] The number of vomits and retches were recorded. […]

[2] = tested on: apomorphine-induced vomiting and retching; assay: Emesis test response by NKNA position 41172 genotype (SAD and MAD participants); conditions: plasma concentration >20 ng/ml; responder = ≦3 retches and vomits
Experimental: FIG. 4: 2×2 Contingency table for 29 position 41172 genotype test results with concentration before emesis test >20 ng/ml 2-(3,5-bis-trifluoromethyl-phenyl)-N-methyl-N-(6-morpholin-4-yl-4-o-tolyl-pyridin-3-yl)-isobutyramide. Effect=yes: number of vomits+retches≦3. Fisher's Exact Test (two-sided): p=0.033. The genotypes of the subjects were classified according to the following categories: 0-2 are allele 2 (nucleotide G) homozygotes (two copies of allele 2, no copies of allele 1); not 0-2 include allelel (nucleotide A) homozygotes 2-0 (two copies of allele 1, no copies of allele 2) and heterozygotes 1-1 (one copy of allele 1 and one copy of allele 2).
Three genetic markers were selected based on the results from polymorphism discovery in the NKNA gene. Samples were genotyped for these single nucleotide polymorphisms by a kinetic PCR method described by Germer et al., Genome Res. (2000), 10, 258-266 with the modification of using single sample for each reaction instead of pooling samples. This method allows discrimination of single nucleotide polymorphisms without the use of fluorescent probes.
All participants of the SAD and MAD were tested for the single nucleotide polymorphism at position 41172 of the NKNA gene as defined by position in FIG. 2.

[3] = tested on: apomorphine-induced vomiting and retching; assay: Emesis test (apomorphine challenge), Multiple Ascending Dose study (MAD); conditions: 14 once daily doses, test on day 14, 6 or 24 hrs after last dose
Experimental: as §1, with “dose. Subjects were dosed for 14 days with 2-(3,5-bis-trifluoromethyl-phenyl)-N-methyl-N-(6-morpholin-4-yl-4-o-tolyl-pyridin-3-yl)-isobutyramide. On day 14 the test was carried out as described in the SAD.” for “dose.”

Cc1ccccc1-c1cc(N2CCOCC2)ncc1N(C)C(=O)C(C)(C)c1cc(C(F)(F)F)cc(C(F)(F)F)c1 [2-(3,5-bis-trifluoromethyl-phenyl)-N-methyl-N-(6-morpholin-4-yl-4-o-tolyl-pyridin-3-yl)-isobutyramide]
average number of retches and vomits at the plateau reached with the blockade ([1]; apomorphine 50 μg/kg s.c. 6 or 24 hrs after oral drug): 3
plasma concentration at which efficacious levels are reached (minimal concentration to achieve efficacy) ([1]; oral drinking emulsion 5-400 mg, apomorphine 50 μg/kg s.c. 6 or 24 hrs after drug, efficacy = plateau of 3 retches and vomits): 20 ng/mL
response to treatment of subjects with G at position 41172 of the NKNA gene versus subjects without it or heterozygous [2]: responding with a higher efficacy
emesis test result in MAD [3]: consistent with the SAD
